In patent US5948750A, “Conjugates useful in the treatment of prostate cancer” (priority 1997, dated 1999):
Like-named read-outs stand apart in the source and are kept apart here. Square brackets hold non-standard residues; d marks the D form. Peptide text beside a SMILES is read from it. * marks the point of attachment. Doxorubicin(3'-N) = COc1cccc2c1C(=O)c1c(O)c3c(c(O)c1C2=O)C[C@@](O)(C(=O)CO)C[C@@H]3O[C@H]1C[C@H](N*)[C@H](O)[C@H](C)O1; Decanoyl(3,6,9-trioxa) = COCCOCCOCC(=O)*; Hyp = O=C(O)[C@@H]1C[C@@H](O)CN1; Chg = N[C@H](C(=O)O)C1CCCCC1; ΔPro = O=C(O)[C@@H]1C=CCN1

Assays:
free PSA [1] = biological target: T1, free PSA (Homo sapiens, UniProt P07288); test: Recognition of oligopeptide-doxorubicin conjugates by free PSA (HPLC cleavage assay); format: biochemical; details: conjugate to PSA molar ratio 100 to 1; enzymatically active free PSA
T1 construct: required for 50% cleavage of the noted oligopeptides with enzymatically active free PSA
T1 sequence (P07288 25-261): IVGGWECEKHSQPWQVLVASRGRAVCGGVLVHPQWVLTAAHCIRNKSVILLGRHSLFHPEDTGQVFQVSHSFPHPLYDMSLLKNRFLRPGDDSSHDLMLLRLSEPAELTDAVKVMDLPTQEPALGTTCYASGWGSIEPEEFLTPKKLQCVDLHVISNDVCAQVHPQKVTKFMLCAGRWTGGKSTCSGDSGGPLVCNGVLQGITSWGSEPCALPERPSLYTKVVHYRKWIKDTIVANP
Procedure: The conjugates prepared as described in Examples 3-5 were individually dissolved in PSA digestion buffer (12 mM tris(hydroxymethyl)-aminomethane pH 8.0, 25 mM NaCl, 0.5 mM CaCl2) and the solution added to PSA at a molar ration of 100 to 1. Alternatively, the PSA digestion buffer utilized is 50 mM tris(hydroxymethyl)-aminomethane pH 7.4, 140 mM NaCl. The reaction is quenched after various reaction times by the addition of trifluoroacetic acid (TFA) to a final 1% (volume/volume). Alternatively the reaction is quenched with 10 mM ZnCl2. The quenched reaction was analyzed by HPLC on a reversed-phase C18 column using an aqueous 0.1% TFA/acetonitrile gradient. […] If no salt is indicated for the conjugate, the free conjugate was tested. The oligopeptide-cytotoxic agent conjugates described in Examples 4 and 5 were assessed for the amount of time (in minutes) required for 50% cleavage of the oligopeptide with enzymatically active free PSA and 50% cleavage occurred in less than 2 hours for those conjugates.

DuPRO cells = test: In vitro cytotoxicity of peptidyl derivatives of doxorubicin, Alamar Blue assay, DuPRO; format: cell-based; details: 72 HRS, read-out: DUPRO Cell Kill in 72 HRS EC 50
Procedure: (§1) The cytotoxicities of the cleaveable oligopeptide-doxorubicin conjugates, prepared as described in Examples 3 and 4, against a line of cells which is known to be killed by unmodified doxorubicin were assessed with an Alamar Blue assay. Specifically, cell cultures of LNCap prostate tumor cells (which express enzymatically active PSA) or DuPRO cells in 96 well plates was diluted with medium (Dulbecco's […]-α[MEM-α]) containing various concentrations of a given conjugate (final plate well volume of 200 μl). The cells were incubated for 3 days at 37° C., 20 μl of Alamar Blue is added to the assay well. The cells were further incubated and the assay plates were read on a EL-310 ELISA reader at the dual wavelengths of 570 and 600 nm at 4 and 7 hours after addition of Alamar Blue. Relative percentage viability at the various concentration of conjugate tested was then calculated versus control (no conjugate) cultures. If no salt is indicated, the free conjugate was tested.

[2] = test system: LNCap prostate tumor cells (which express enzymatically active PSA); test: In vitro cytotoxicity of peptidyl derivatives of doxorubicin, Alamar Blue assay, LNCaP; format: cell-based; details: 72 HRS (3 days at 37° C.), read-out: LNCaP Cell Kill in 72 HRS EC 50
Procedure: as §1

free PSA [3] = biological target: T1, free PSA; format: biochemical; details: for Substrate cleavage by PSA at 3 hours: oligopeptide to PSA molar ratio 100 to 1; for Time to 50% Substrate Cleavage by PSA: free psa
Procedure: The oligopeptides prepared as described in Example 1 were individually dissolved in PSA digestion buffer (12 mM tris(hydroxymethyl)-aminomethane pH 8.0, 25 mM NaCl, 0.5 mM CaCl2) and the solution added to PSA at a molar ration of 100 to 1. Alternatively, the PSA digestion buffer utilized is 50 mM tris(hydroxymethyl)-aminomethane pH 7.4, 140 mM NaCl. The reaction is quenched after various reaction times by the addition of trifluoroacetic acid (TFA) to a final 1% (volume/volume). Alternatively the reaction is quenched with 10 mM ZnCl2. The quenched reaction was analyzed by HPLC on a reversed-phase C18 column using an aqueous 0.1% TFA/acetonitrile gradient. […] Oligopeptides containing free amine moieties (ie. comprising hArg, Orn, Lys and or 3PAL) were tested as TFA salts. All other oligopeptides were tested as neutral compounds.

| Structure (SMILES) | Substrate cleavage by PSA at 3 hours (free PSA [3]) [%] | Time to 50% Substrate Cleavage by PSA (free PSA [3]) [min] | Time to 50% Substrate Cleavage by PSA (free PSA [1]) [min] | also measured |
| --- | --- | --- | --- | --- |
| COc1cccc2c1C(=O)c1c(O)c3c(c(O)c1C2=O)C[C@@](O)(C(=O)CO)C[C@@H]3O[C@H]1C[C@H](NC(=O)[C@H](CC(C)(C)C)NC(=O)[C@H](CO)NC(=O)[C@H](CCC(N)=O)NC(=O)[C@@H](NC(=O)[C@H](CO)NC(=O)[C@H](C)NC(=O)[C@@H]2C[C@@H](O)CN2C(C)=O)C2CCCCC2)[C@H](O)[C@H](C)O1 |  |  | 25 |  |
| COc1cccc2c1C(=O)c1c(O)c3c(c(O)c1C2=O)C[C@@](O)(C(=O)CO)C[C@@H]3O[C@H]1C[C@H](NC(=O)[C@H](CC(C)C)NC(=O)[C@H](CO)NC(=O)[C@H](CCC(N)=O)NC(=O)[C@@H](NC(=O)[C@H](CO)NC(=O)[C@H](C)NC(=O)[C@@H]2C[C@@H](O)CN2C(C)=O)C2CCCCC2)[C@H](O)[C@H](C)O1 (relative stereo) [Ac-(4-trans-L-Hyp)ASChgQ-SL-DOX (3'), [N-Ac-(4-trans-L-Hyp)]-Ala-Ser-Chg-Gln-Ser-Leu-Dox] |  |  | 20 | EC50 (DuPRO cells): 90 µM; EC50 [2]: 4.5 µM |
| CC(=O)N1C[C@H](O)C[C@H]1C(=O)N[C@@H](C)C(=O)N[C@@H](CO)C(=O)N[C@H](C(=O)N[C@@H](CCC(N)=O)C(=O)N[C@@H](CO)C(=O)N1Cc2ccccc2C[C@H]1C(=O)O)C1CCCCC1 [Ac-(4-trans-L-Hyp)ASChgQ-S(TIC)-acid] | 16 |  |  |  |
| COCCOCCOCC(=O)N1C[C@H](O)C[C@H]1C(=O)N[C@@H](C)C(=O)N[C@@H](CO)C(=O)N[C@H](C(=O)N[C@@H](CCC(N)=O)C(=O)N[C@@H](CO)C(=O)N[C@@H](CC(C)C)C(=O)N[C@H]1C[C@H](O[C@H]2C[C@](O)(C(=O)CO)Cc3c(O)c4c(c(O)c32)C(=O)c2c(OC)cccc2C4=O)O[C@@H](C)[C@H]1O)C1CCCCC1 [PEG(2)-(4-trans-L-Hyp)ASChgQ-SL-DOX (3')] ({Decanoyl(3,6,9-trioxa)}-[Hyp]AS[Chg]QSL-{Doxorubicin(3'-N)}) |  |  | 20 |  |

Now from value to compound, other results behind:

| Substrate cleavage by PSA at 3 hours (free PSA [3]) [%] | Time to 50% Substrate Cleavage by PSA (free PSA [3]) [min] | Structure (SMILES) | Time to 50% Substrate Cleavage by PSA (free PSA [1]) [min] | also measured |
| --- | --- | --- | --- | --- |
|  | 75 | CC(=O)N1C[C@H](O)C[C@H]1C(=O)N[C@@H](C)C(=O)N[C@@H](CO)C(=O)N[C@H](C(=O)N[C@@H](CCC(N)=O)C(=O)N[C@@H](CO)C(=O)N[C@@H](CC(C)C)C(=O)O)C1CCCCC1 [Ac-(4-trans-L-Hyp)ASChgQ-SL-acid, [N-Ac-(4-trans-L-Hyp)]-Ala-Ser-Chg-Gln-Ser-Leu-OH] (Ac-[Hyp]AS[Chg]QSL-OH) |  |  |
| 0 |  | CC(=O)N1C[C@H](O)C[C@H]1C(=O)N[C@H](C(=O)N[C@@H](CCC(N)=O)C(=O)N[C@@H](CO)C(=O)N[C@@H](CO)C(=O)N[C@@H](CO)C(=O)N[C@@H](CC(C)C)C(=O)O)C1CCCCC1 [Ac-(4-trans-L-Hyp)ChgQ-SSSL-acid] (Ac-[Hyp][Chg]QSSSL-OH) |  |  |
| 28 |  | CC(=O)N1CC=C[C@H]1C(=O)N[C@@H](C)C(=O)N[C@@H](CO)C(=O)N[C@H](C(=O)N[C@@H](CCC(N)=O)C(=O)N[C@@H](CO)C(=O)N[C@@H](CC(C)C)C(=O)O)C1CCCCC1 [Ac-(Dehydro-Pro)-ASChgQ-SL-acid] (Ac-[ΔPro]AS[Chg]QSL-OH) |  |  |
|  | 150 | CC(=O)N1CCC[C@H]1C(=O)N[C@@H](C)C(=O)N[C@@H](CO)C(=O)N[C@H](C(=O)N[C@@H](CCC(N)=O)C(=O)N[C@@H](CO)C(=O)N[C@@H](CC(C)C)C(=O)O)C1CCCCC1 [Ac-PASChgQ-SL-acid] (Ac-PAS[Chg]QSL-OH) |  |  |
|  | 120 | CC(=O)N1CCC[C@H]1C(=O)N[C@@H](CO)C(=O)N[C@@H](CO)C(=O)N[C@H](C(=O)N[C@@H](CCC(N)=O)C(=O)N[C@@H](CO)C(=O)N[C@H](C(=O)O)C(C)C)C1CCCCC1 [Ac-PSSChgQ-SV-acid] |  |  |
| 44 |  | COCCOCCOCC(=O)N1C[C@H](O)C[C@H]1C(=O)N[C@@H](C)C(=O)N[C@@H](CO)C(=O)N[C@H](C(=O)N[C@@H](CCC(N)=O)C(=O)N[C@@H](CO)C(=O)N[C@@H](CC(C)C)C(=O)O)C1CCCCC1 [PEG(2)-(4-trans-L-Hyp)-ASChgQ-SL-acid] ({Decanoyl(3,6,9-trioxa)}-[Hyp]AS[Chg]QSL-OH) |  |  |
